Results published in US10506809B2, “Herbicidal combination comprising saflufenacil and glufosinate” (BASF SE, priority 2015, dated 2019).
Like-named read-outs stand apart in the source and are kept apart here.

Assays:
Type in all cases: in vivo
[1] = system: Solanum nigrum; experiment: Greenhouse post-emergence herbicidal activity on SOLNI (black nightshade)
Excerpt: (§1) The test plants were first grown to a height of 3 to 20 cm, depending on the plant habit, and only then treated (post-emergence treatment). Here, the herbicidal combinations were suspended, emulsified or dissolved in water as distribution medium and afterwards applied by spraying, using finely distributing nozzles.
(§2) The herbicides A, B and C were used as commercially available formulations and introduced to the spray liquor with the amount of solvent system used for applying the active compound. In the examples, the solvent used was water.
(§3) The test period extended over 20 days. During this time, the plants were tended, and their response to the treatments with active compounds was evaluated.
(§4) The evaluation for the damage caused by the chemical compositions was carried out using a scale from 0 to 100%, compared to the untreated control plants. Here, 0 means no damage and 100 means complete destruction of the plants.
(§5) The plants used in the greenhouse experiments belonged to the following species:
(§6) The value E, which is to be expected if the activity of the individual compounds is just additive, was calculated using the method of S. R. Colby (1967) “Calculating synergistic and antagonistic responses of herbicide combinations”, Weeds 15, p. 22 ff. For two component mixtures the value E was calculated by the following formula E=X+Y−(X·Y/100) where • X=effect in percent using a mixture of herbicides A and B at application rates a and b, respectively; • Y=effect in percent using herbicide C at an application rate c; • E=expected effect (in %) of A+B+C at application rates a+b+c.
(§7) If the value observed in this manner is higher than the value E calculated according to Colby, a synergistic effect is present.
(§8) Tables 1 to 21 relate to the herbicidal activities of the binary mixture of herbicides A and B, of herbicide C individually and of their combinations in post-emergence application assessed 20 days after treatment (20 DAT).

[2] = system: Setaria viridis; experiment: Greenhouse post-emergence herbicidal activity on SETVI (green foxtail)
Excerpt: as §1, §2, §3, §4, §5, §6, §7, §8

[3] = system: Amaranthus retroflexus; experiment: Greenhouse post-emergence herbicidal activity on AMARE (pig weed)
Excerpt: as §1, §2, §3, §4, §5, §6, §7, §8

[4] = system: Echinochloa crus-galli; experiment: Greenhouse post-emergence herbicidal activity on ECHCG (barnyard grass)
Excerpt: as §1, §2, §3, §4, §5, §6, §7, §8

[5] = system: Avena fatua; experiment: Greenhouse post-emergence herbicidal activity on AVEFA (common wild oat)
Excerpt: as §1, §2, §3, §4, §5, §6, §7, §8

[6] = system: Abutilon theophrasti; experiment: Greenhouse post-emergence herbicidal activity on ABUTH (velvetleaf)
Excerpt: as §1, §2, §3, §4, §5, §6, §7, §8

[7] = system: Brachiaria platyphylla; experiment: Greenhouse post-emergence herbicidal activity on BRAPP (broadleaf signalgrass)
Excerpt: as §1, §2
The test period extended over 20 days. During this time, the plants were tended, and their response to the treatments with active compounds was evaluated. […]
The value E, which is to be expected if the activity of the individual compounds is just additive, was calculated using the method of S. R. Colby (1967) “Calculating synergistic and antagonistic responses of herbicide combinations”, Weeds 15, p. […] For two component mixtures the value E was calculated by the following formula E=X+Y−(X·Y/100) where • X=effect in percent using a mixture of herbicides A and B at application rates a and b, respectively; • Y=effect in percent using herbicide C at an application rate c; • E=expected effect (in %) of A+B+C at application rates a+b+c.
If the value observed in this manner is higher than the value E calculated according to Colby, a synergistic effect is present. […]

[8] = system: Brachiaria decumbens; experiment: Greenhouse post-emergence herbicidal activity on BRADC (Surinam grass)
Excerpt: as §1, §2, §3, §4, §5, §6, §7, §8

[9] = system: Digitaria sanguinalis; experiment: Greenhouse post-emergence herbicidal activity on DIGSA (large crabgrass)
Excerpt: as §1, §2, §3, §4, §5, §6, §7, §8

[10] = Abutilon theophrasti, 480 h, ABUTH, solo C 20.0 g ai/ha, 20 DAT, read-out: % activity 20 DAT
[11] = solo C S-metolachlor 150.0 g ai/ha
[12] = solo C 2,4-D LV ester 6.25 g ai/ha

Q: How did the “% activity 20 DAT” value ([1]; solo C dimethenamid-P 18.75 g ai/ha) turn out when COC[C@H](C)N(C(=O)CCl)c1c(C)csc1C [dimethenamid-P, Dimethenamid-P] was run?
A: The value was 10%.

Q: Which inhibition at 150 g/ha ([2]; Setaria viridis, 480 h, solo C pendimethalin 150.0 g ai/ha, SETVI, read-out: % activity 20 DAT) does the source give for CCC(CC)Nc1c([N+](=O)[O-])cc(C)c(C)c1[N+](=O)[O-] [pendimethalin, Pendimethalin] here?
A: Its inhibition at 150 g/ha is 25%.

Q: And the inhibition at 75 g/ha ([3]; Amaranthus retroflexus, 480 h, solo C pendimethalin 75.0 g ai/ha, read-out: % activity 20 DAT)?
A: The inhibition at 75 g/ha was 55%.

Q: What does the source list for Bicyclopyrone?
A: % activity 20 DAT ([2]; SETVI, solo C 1.0 g ai/ha, 20 DAT): 0%; % activity 20 DAT ([4]; solo C 20.0 g ai/ha): 75%; % activity 20 DAT ([5]; solo C 2.0 g ai/ha): 0%

Q: What does the source list for O=C(O)c1c(Cl)ccc2cc(Cl)cnc12 [quinclorac, Quinclorac]?
A: inhibition at 5 g/ha ([4]; Echinochloa crus-galli, 480 h, solo C quinclorac 5.0 g ai/ha, read-out: % activity 20 DAT): 0%; inhibition at 5 g/ha ([5]; Avena fatua, 480 h, solo C quinclorac 5.0 g ai/ha, read-out: % activity 20 DAT): 0%

Q: Which inhibition at […] ([2]; Setaria viridis, 480 h, solo C mesotrione 2.5 g ai/ha, SETVI, read-out: % activity 20 DAT) does the source give for CS(=O)(=O)c1ccc(C(=O)C2C(=O)CCCC2=O)c([N+](=O)[O-])c1 [mesotrione, Mesotrione] here?
A: The inhibition at […] was 25%.

Q: And the inhibition at 1.25 g/ha ([1]; Solanum nigrum, 480 h, solo C mesotrione 1.25 g ai/ha, read-out: % activity 20 DAT)?
A: The inhibition at 1.25 g/ha was 85%.

Q: Nc1c(Cl)c(F)nc(OCC(=O)O)c1Cl [fluroxypyr, Fluroxypyr] was tested. Which pest or weed control at 20 g/ha [6, 10] did it give?
A: Its pest or weed control at 20 g/ha is 50%.

Q: What about the “% activity 20 DAT” value ([5]; solo C 10.0 g ai/ha) of the same compound?
A: Its value is 0%.

Q: How did the “% activity 20 DAT” value ([2]; solo C diclosulam 0.5 g ai/ha, SETVI) turn out when CCOc1nc(F)cc2nc(S(=O)(=O)Nc3c(Cl)cccc3Cl)nn12 [diclosulam, Diclosulam] was run?
A: The value was 35%.

Q: What about the “% activity 20 DAT” value ([1]; solo C diclosulam 0.25 g ai/ha) of the same compound?
A: The value was 25%.

Q: With CCOCN(C(=O)CCl)c1c(C)cccc1CC [acetochlor, Acetochlor] as the compound, how does the inhibition at 12.5 g/ha ([6]; Abutilon theophrasti, 480 h, solo C acetochlor 12.5 g ai/ha, ABUTH, read-out: % activity 20 DAT) read?
A: The inhibition at 12.5 g/ha was 10%.

Q: Which results are given for C#CCN1C(=O)COc2cc(F)c(N3C(=O)C4=C(CCCC4)C3=O)cc21 [flumioxazin, Flumioxazin]?
A: inhibition at 0.125 g/ha ([6]; Abutilon theophrasti, 480 h, solo C flumioxazin 0.125 g ai/ha, ABUTH, read-out: % activity 20 DAT): 80%; inhibition at […] ([2]; Setaria viridis, 480 h, solo C flumioxazin 0.25 g ai/ha, SETVI, read-out: % activity 20 DAT): 60%

Q: For CS(=O)(=O)c1cc(C(F)(F)F)ccc1C(=O)c1cnoc1C1CC1 [isoxaflutole, Isoxaflutole], which inhibition at 0.5 g/ha ([3]; Amaranthus retroflexus, 480 h, solo C isoxaflutole 0.5 g ai/ha, read-out: % activity 20 DAT) is on record?
A: Its inhibition at 0.5 g/ha is 55%.

Q: And the inhibition at 1 g/ha ([7]; Urochloa platyphylla, 480 h, solo C isoxaflutole 1.0 g ai/ha, read-out: % activity 20 DAT)?
A: Its inhibition at 1 g/ha is 25%.

Q: For CCc1cccc(C)c1N(C(=O)CCl)[C@@H](C)COC [S-metolachlor, S-Metolachlor], which “% activity 20 DAT” value [8, 11] is on record?
A: Its value is 0%.

Q: What about the “% activity 20 DAT” value ([6]; solo C S-metolachlor 150.0 g ai/ha, ABUTH) of the same compound?
A: The value was 10%.

Q: And the “% activity 20 DAT” value ([2]; solo C S-metolachlor 300.0 g ai/ha, SETVI)?
A: Its value is 60%.

Q: What about the “% activity 20 DAT” value [9, 11] of the same compound?
A: Its value is 0%.

Q: Which inhibition at 1 g/ha ([6]; Abutilon theophrasti, 480 h, solo C tembotrione 1.0 g ai/ha, ABUTH, read-out: % activity 20 DAT) does the source give for CS(=O)(=O)c1ccc(C(=O)C2C(=O)CCCC2=O)c(Cl)c1COCC(F)(F)F [tembotrione, Tembotrione] here?
A: Its inhibition at 1 g/ha is 10%.

Q: What about the inhibition at 1 g/ha ([2]; Setaria viridis, 480 h, solo C tembotrione 1.0 g ai/ha, SETVI, read-out: % activity 20 DAT) of the same compound?
A: Its inhibition at 1 g/ha is 0%.

Q: And the inhibition at 0.5 g/ha ([3]; Amaranthus retroflexus, 480 h, solo C tembotrione 0.5 g ai/ha, read-out: % activity 20 DAT)?
A: The inhibition at 0.5 g/ha was 80%.

Q: And the inhibition at 1 g/ha ([5]; Avena fatua, 480 h, solo C tembotrione 1.0 g ai/ha, read-out: % activity 20 DAT)?
A: The inhibition at 1 g/ha was 10%.

Q: Which “% activity 20 DAT” value ([6]; ABUTH, solo C 0.25 g ai/ha, 20 DAT) does the source give for Cc1c(C(=O)c2cnn(C)c2O)ccc(S(C)(=O)=O)c1C1=NOCC1 [topramezone, Topramezone] here?
A: The value was 0%.

Q: And the “% activity 20 DAT” value ([9]; solo C 0.25 g ai/ha, 20 DAT)?
A: Its value is 10%.

Q: And the “% activity 20 DAT” value ([4]; solo C 0.25 g ai/ha)?
A: Its value is 20%.

Q: What about the “% activity 20 DAT” value ([5]; solo C 0.25 g ai/ha) of the same compound?
A: The value was 10%.

Q: With Cc1ccc(S(=O)(=O)Oc2c(C(=O)c3ccc(Cl)cc3Cl)c(C)nn2C)cc1 [pyrazolynate, Pyrazolynate] as the compound, how does the “% activity 20 DAT” value ([8]; solo C 10.0 g ai/ha, 20 DAT) read?
A: Its value is 0%.

Q: What about the pest or weed control at 20 g/ha [6, 10] of the same compound?
A: Its pest or weed control at 20 g/ha is 25%.

Q: And the “% activity 20 DAT” value ([9]; solo C 10.0 g ai/ha, 20 DAT)?
A: The value was 0%.

Q: Cc1nn(C)c(O)c1C(=O)c1ccc(C(F)(F)F)cc1S(C)(=O)=O [pyrasulfotole, Pyrasulfotole] was tested. Which “% activity 20 DAT” value ([8]; solo C 5.0 g ai/ha, 20 DAT) did it give?
A: Its value is 0%.

Q: What about the “% activity 20 DAT” value ([9]; solo C 5.0 g ai/ha, 20 DAT) of the same compound?
A: Its value is 35%.

Q: What about the “% activity 20 DAT” value ([4]; solo C 2.5 g ai/ha) of the same compound?
A: The value was 80%.

Q: How did the “% activity 20 DAT” value [3, 12] turn out when CCCCC(CC)COC(=O)COc1ccc(Cl)cc1Cl (stereo not drawn) [2,4-D LV ester, 2,4-D] was run?
A: The value was 45%.

Q: What about the “% activity 20 DAT” value [7, 12] of the same compound?
A: Its value is 10%.

Q: How did the “% activity 20 DAT” value ([6]; ABUTH, solo C 20.0 g ai/ha, 20 DAT) turn out when CS(=O)(=O)c1ccc(C(=O)C2=C(Sc3ccccc3)C3CCC(C3)C2=O)c(Cl)c1 (stereo not drawn) [benzobicyclon, Benzobicyclon] was run?
A: Its value is 90%.

Q: What about the “% activity 20 DAT” value ([9]; solo C 20.0 g ai/ha, 20 DAT) of the same compound?
A: The value was 60%.

Q: And the “% activity 20 DAT” value ([3]; solo C 20.0 g ai/ha, 20 DAT)?
A: Its value is 60%.

Q: And the “% activity 20 DAT” value ([5]; solo C 10.0 g ai/ha)?
A: Its value is 10%.

Q: What does the source list for COc1c(Cl)ccc(Cl)c1C(=O)O [dicamba, Dicamba]?
A: inhibition at 17.5 g/ha ([6]; Abutilon theophrasti, 480 h, solo C dicamba 17.5 g ai/ha, ABUTH, read-out: % activity 20 DAT): 70%; inhibition at 8.75 g/ha ([2]; Setaria viridis, 480 h, read-out: % activity 20 DAT): 15%

Q: How did the “% activity 20 DAT” value ([8]; solo C 5.0 g ai/ha, 20 DAT) turn out when CS(=O)(=O)c1ccc(C(=O)C2C(=O)CCCC2=O)c(Cl)c1 [sulcotrione, Sulcotrione] was run?
A: The value was 0%.

Q: What about the pest or weed control at 20 g/ha ([6]; Abutilon theophrasti, 480 h, read-out: % activity 20 DAT) of the same compound?
A: Its pest or weed control at 20 g/ha is 85%.

Q: What about the “% activity 20 DAT” value ([4]; solo C 2.5 g ai/ha) of the same compound?
A: The value was 30%.

Q: CCNc1nc(Cl)nc(NC(C)C)n1 [atrazin, Atrazin] was tested. Which inhibition at 6.25 g/ha ([1]; Solanum nigrum, 480 h, solo C atrazin 6.25 g ai/ha, read-out: % activity 20 DAT) did it give?
A: Its inhibition at 6.25 g/ha is 35%.

Q: How did the inhibition at 1.5 g/ha ([6]; Abutilon theophrasti, 480 h, solo C salfentrazone 1.5 g ai/ha, ABUTH, read-out: % activity 20 DAT) turn out when Cc1nn(-c2cc(NS(C)(=O)=O)c(Cl)cc2Cl)c(=O)n1C(F)F [salfentrazone, Sulfentrazone] was run?
A: The inhibition at 1.5 g/ha was 40%.

Q: What about the inhibition at 1.5 g/ha ([2]; Setaria viridis, 480 h, solo C salfentrazone 1.5 g ai/ha, SETVI, read-out: % activity 20 DAT) of the same compound?
A: Its inhibition at 1.5 g/ha is 30%.
